Where a name gives a salt, the structure may show the parent alone.
Tested on: not given
Assay: not given
Conditions: not given

| Structure (SMILES) | melting point [°C] |
| --- | --- |
| CN(C)CC(Cc1ccccc1)C(=O)c1cccc(Cl)c1Cl.Cl (racemic) | 114 |
| COc1ccc(C(=O)C(Cc2ccccc2)CN(C)C)c(OC)c1OC.Cl (racemic) | 141 |
| COc1cc(C(=O)C(Cc2ccccc2)CN(C)C)cc(OC)c1OC.Cl (racemic) | 125 |
| CN(C)CC(Cc1ccccc1)C(=O)c1cc(O)ccc1O.Cl (racemic) | 177 |
| COc1ccccc1C(=O)C(Cc1ccccc1)CN(C)C.Cl (racemic) | 159 |
| CN(C)CC(Cc1ccccc1)C(=O)c1ccc2ccccc2c1.Cl (racemic) | 135.3 |
| CN(C)CC(Cc1ccccc1)C(=O)c1ccc2ccc3ccccc3c2c1.Cl (racemic) | 138.7 |
| CN(C)CC(Cc1ccccc1)C(=O)c1ccccc1O.Cl (racemic) | 123 |
| COc1ccc2cc(C(=O)C(Cc3ccccc3)CN(C)C)ccc2c1.Cl (racemic) | 88 to 95 |
| CN(C)CC(Cc1ccccc1)C(=O)c1ccccc1-c1ccccc1.Cl (racemic) | 134 to 134.8 |
| CN(C)CC(Cc1ccccc1)C(=O)c1ccc(F)cc1Cl.Cl (racemic) | 150.3 |
| COc1cccc(C(=O)C(Cc2ccccc2F)CN(C)C)c1.Cl (racemic) | 111 |
| COc1cccc(C(=O)C(Cc2cccc(F)c2)CN(C)C)c1.Cl (racemic) | 141 |
| COc1cccc(C(=O)C(Cc2ccc(F)cc2)CN(C)C)c1.Cl (racemic) | 138 |
| COc1ccc(CC(CN(C)C)C(=O)c2cccc(OC)c2)cc1.Cl (racemic) | 134 |
| COc1cccc(C(=O)[C@@H](CN(C)C)[C@H](c2ccccc2)c2cccc(OC)c2)c1.Cl (racemic) | 139.1 |
| CC[C@@H](c1ccccc1)[C@H](CN(C)C)C(=O)c1cccc(OC)c1.Cl (racemic) | 89.5 |
| CN(C)CC(Cc1ccccc1)C(=O)c1cccc(C(F)(F)F)c1.Cl (racemic) | 104 |
| CNCC(Cc1cccc(C)c1)C(=O)c1cccc(OC)c1.Cl (racemic) | 118 to 120 |
| COc1cccc(C(=O)C(Cc2ccc(F)c(F)c2)CN(C)C)c1.Cl (racemic) | 128 |
| CN(C)CC(Cc1ccccc1)C(=O)c1cccc(O)c1.Cl (racemic) [Example 6, (2RS)-2-benzyl-3-dimethylamino-1-(3-hydroxyphenyl)-propan-1-one hydrochloride] | 169 |
| COc1ccc(OC)c(C(=O)C(Cc2ccccc2)CN(C)C)c1.Cl (racemic) [Example 8, (2RS)-2-benzyl-1-(2,5-dimethoxyphenyl)-3-dimethylaminopropan-1-one hydrochloride] | 149 |
| CSc1cccc(C(=O)C(Cc2ccccc2)CN(C)C)c1.Cl (racemic) [Example 22, (2RS)-2-benzyl-3-dimethylamino-1-(3-methylsulfanylphenyl)-propan-1-one hydrochloride] | 118 |
| CN(C)CC(Cc1ccccc1)C(=O)c1cccc(C#N)c1.Cl (racemic) [Example 26, (2RS)-3-(2-benzyl-3-dimethylaminopropionyl)-benzonitrile hydrochloride] | 154 |
| CN(C)CC(Cc1ccccc1)C(=O)c1ccc2cc(O)ccc2c1.Cl (racemic) [Example 29, (2RS)-2-benzyl-3-dimethylamino-1-(6-hydroxynaphthalen-2-yl)-propan-1-one hydrochloride] | 180 to 182 |

Tested on: phenylquinone-induced writhing reactions in mice
Assay: Phenylquinone-induced writhing test in mice
Format: in vivo
Conditions: Mus musculus, iv; male mice, 10 mg/kg i.v.; phenylquinone i.p. 10 minutes after test substance; writhing counted 5-20 minutes after phenylquinone
Protocol: The analgesic effectiveness of the compounds according to the invention is investigated in mice by the phenylquinone-induced writhing test as modified by I. C. Hendershot, J. Forsaith in J. Pharmacol. Exp. Ther. 125, 237-240 (1959). For this purpose male mice weighing 25-30 g are used. Groups in each case of 10 animals received per substance a dose, 10 minutes after intravenous administration of the test substances, 0.3 ml/mouse of a 0.02% aqueous solution of phenylquinone (phenylbenzoquinone, Sigma, Deisenhofen; solution prepared under the addition of 5% ethanol and storage in a water bath at 45° C.) applied intraperitoneally. The animals were then placed individually in observation cages. The number of pain-induced stretching movements (so-called writhing reactions=straightening of the body with stretching of the rear extremities) was counted with a push-button counter 5-20 minutes after administration of the phenyl quinone. Animals that had only received physiological saline solution with the phenylquinone served as controls.
All substances were tested in a standard dose of 10 mg/kg. The percentage inhibition (% inhibition) of the writhing reactions achieved by a substance was calculated according to the following formula: [formula]

| Structure (SMILES) | inhibition in vivo at 10 mg/kg [%] |
| --- | --- |
| CN(C)CC(Cc1ccccc1)C(=O)c1cccc(OCc2ccccc2)c1 (racemic) [Example 2, (2RS)-1-(3-benzyloxyphenyl)-2-dimethylaminomethyl-3-phenylpropan-1-one hydrochloride] | 85 |
| CN(C)CC(Cc1ccccc1)C(=O)c1cccc(O)c1.Cl (racemic) [Example 6, (2RS)-2-benzyl-3-dimethylamino-1-(3-hydroxyphenyl)-propan-1-one hydrochloride] | 84 |
| COc1cc(OC)cc(C(=O)C(Cc2ccccc2)CN(C)C)c1 (racemic) [Example 7, (2RS)-2-benzyl-1-(3,5-dimethoxyphenyl)-3-dimethylamino-propan-1-one hydrochloride] | 75 |
| COc1ccc(OC)c(C(=O)C(Cc2ccccc2)CN(C)C)c1.Cl (racemic) [Example 8, (2RS)-2-benzyl-1-(2,5-dimethoxyphenyl)-3-dimethylaminopropan-1-one hydrochloride] | 92 |
| CN(C)CC(Cc1ccccc1)C(=O)c1cc(Cl)ccc1Cl (racemic) [Example 13, (2RS)-2-benzyl-1-(2,5-dichlorophenyl)-3-dimethylaminopropan-1-one hydrochloride] | 70 |
| CSc1cccc(C(=O)C(Cc2ccccc2)CN(C)C)c1.Cl (racemic) [Example 22, (2RS)-2-benzyl-3-dimethylamino-1-(3-methylsulfanylphenyl)-propan-1-one hydrochloride] | 62 |
| CN(C)CC(Cc1ccccc1)C(=O)c1cccc(C#N)c1.Cl (racemic) [Example 26, (2RS)-3-(2-benzyl-3-dimethylaminopropionyl)-benzonitrile hydrochloride] | 79 |
| CN(C)CC(Cc1ccccc1)C(=O)c1ccc2cc(O)ccc2c1.Cl (racemic) [Example 29, (2RS)-2-benzyl-3-dimethylamino-1-(6-hydroxynaphthalen-2-yl)-propan-1-one hydrochloride] | 82 |
| C/C=C(\c1cccc(OC)c1)C(Cc1ccccc1)CN(C)C (racemic) [Example 65, Z-(2RS)-[2-benzyl-3-(3-methoxyphenyl)-pent-3-enyl]-dimethyl-amine hydrochloride] | 100 |
| COc1ccc(C(=O)C(Cc2ccccc2)CN(C)C)c(C)c1C (racemic) [Example 71, (2RS)-2-benzyl-3-dimethylamino-1-(4-methoxy-2,3-dimethylphenyl)-propan-1-one hydrochloride] | 94 |
| COc1cccc(C(=O)C(Cc2cccc(Cl)c2)CN(C)C)c1 (racemic) [Example 72, (2RS)-2-(3-chlorobenzyl)-3-dimethylamino-1-(3-methoxyphenyl)-propan-1-one hydrochloride] | 85 |
| COc1cccc(C(=O)[C@@H](Cc2ccccc2)CN(C)C)c1 [Example 11, (−)-(S)-2-benzyl-3-dimethylamino-1-(3-methoxyphenyl)-propan-1-one hydrochloride] | 90 |
